The record followed here is patent US8871767B2, “2-arylimidazo[1,2-B]pyridazine, 2-phenylimidazo[1,2-A]pyridine, and 2-phenylimidazo[1,2-A]pyrazine derivatives” (Hengrui (USA) Ltd., priority 2010, dated 2014).

As usually defined, the IC50 is the concentration that gives 50% inhibition.

In this experiment the test system is Hedgehog pathway activation (GLi-luciferase reporter) in Shh Light II reporter cells. Briefly: Hedgehog pathway activation on Shh Light II reporter cells measured by luciferase activity. The class given is cell-based. As to conditions: Mus musculus, Shh Light II, hShh activation, read-out: Shh (IC50, inhibition of Hedgehog pathway activation). The method in brief: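 Shh Light II reporter cells carrying a hedgehog-responsive GLi-luciferase reporter were stimulated either with 500 nM SAG, a direct Smoothened agonist, or with conditioned media containing human Sonic Hedgehog (hShh). Test compounds were evaluated for blocking this pathway activation, quantified by luciferase activity. Cell viability was monitored in parallel with the Celltiter-Blue® assay.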
Take `CC(C)c1ccccc1-c1ccc2nc(-c3ccc(C(F)(F)F)c(NC(=O)C(C)(C)C)c3)cn2n1` [Example 324, N-(5-(6-(2-isopropylphenyl)imidazo[1,2-b]pyridazin-2-yl)-2-(trifluoromethyl)phenyl)pivalamide]: the half-maximal inhibitory concentration (IC50) came to 1.46 µM. The same measure for `COc1cncc(-c2ccc3nc(-c4ccc(C)c(NC(=O)C(C)(C)C)c4)cn3n2)c1` [Example 403, N-(5-(6-(5-methoxypyridin-3-yl)imidazo[1,2-b]pyridazin-2-yl)-2-methylphenyl)pivalamide]: 0.474 µM; for `Cc1ccc(-c2cn3nc(-c4cccnc4C(F)(F)F)ccc3n2)cc1NC(=O)CCCCC(=O)NO` [Example 440, N^1-hydroxy-N^6-(2-methyl-5-(6-(2-(trifluoromethyl)pyridin-3-yl)imidazo[1,2-b]pyridazin-2-yl)phenyl)adipamide]: 4.06 µM; for `CCOC(=O)C=Cc1ccc2nc(-c3ccc(C)c(NC(=O)C(C)(C)C)c3)cn2n1` [compound 572]: 0.596 µM. For the compound `CC(C)(C)C(=O)Nc1cc(-c2cn3nc(-c4cccnc4N4CCOCC4)ccc3n2)ccc1C(F)(F)F` [Example 335, N-(5-(6-(2-morpholinopyridin-3-yl)imidazo[1,2-b]pyridazin-2-yl)-2-(trifluoromethyl)phenyl)pivalamide], the IC50 was 1.61 µM. The same measure for `Cc1ccc(-c2cn3nc(-c4ccc(NC(=O)CCCCCCC(=O)O)cc4)ccc3n2)cc1NC(=O)C(C)(C)C` [compound 561]: 2.3 µM.

For the compound `CC(C)(C)C(=O)Nc1cc(-c2cn3nc(-c4cccc(CO)c4)ccc3n2)ccc1C(F)(F)F` [Example 323, N-(5-(6-(3-(hydroxymethyl)phenyl)imidazo[1,2-b]pyridazin-2-yl)-2-(trifluoromethyl)phenyl)pivalamide], the IC50 came out at 2.58 µM.

As for `Cc1ccc(-c2cn3nc(NS(=O)(=O)c4cccc(Br)c4)ccc3n2)cc1NC(=O)C(C)(C)C` [compound 595], the IC50 amounted to 0.348 µM. Consider `COC(=O)c1cccc(-c2ccc3nc(-c4ccc(C)c(NC(=O)C(C)(C)C)c4)cn3n2)c1` [compound 583], for which the IC50 was 0.742 µM. The same measure for `Cc1ccc(-c2cn3nc(-c4cccnc4C(F)(F)F)ccc3n2)cc1C#N` [Example 480, 2-methyl-5-(6-(2-(trifluoromethyl)pyridin-3-yl)imidazo[1,2-b]pyridazin-2-yl)benzonitrile]: 5.19 µM. The same measure for `Cc1ccc(-c2cn3nc(-c4ccc(C(=O)O)cc4F)ccc3n2)cc1NC(=O)C(C)(C)C` [compound 523]: 9.63 µM.

Regarding `Cc1ccc(-c2cn3nc(-c4ccc(OCC(=O)NO)cc4C(F)(F)F)ccc3n2)cc1NC(=O)C(C)(C)C` [Example 455, N-(5-(6-(4-(2-(hydroxyamino)-2-oxoethoxy)-2-(trifluoromethyl)phenyl)imidazo[1,2-b]pyridazin-2-yl)-2-methylphenyl)pivalamide], the IC50 stood at 3.46 µM.

On to `CC(=O)Nc1ncc(-c2cc(-c3cn4nc(-c5cccnc5C(F)(F)F)ccc4n3)ccc2C)s1` [compound 513], for which the 50% inhibitory concentration (IC50) came out at 0.376 µM.

Turning to `Cc1ccc(-c2cn3nc(-c4ccc(-c5nnco5)cc4)ccc3n2)cc1NC(=O)C(C)(C)C` [compound 539], the IC50 stood at 0.35 µM. With `Cc1ccc(-c2cn3nc(-c4cccnc4C(F)(F)F)ccc3n2)cc1NS(=O)(=O)c1cccc(C=CC(=O)NO)c1` [compound 626, N-hydroxy-3-(3-(N-(2-methyl-5-(6-(2-(trifluoromethyl)pyridin-3-yl)imidazo[1,2-b]pyridazin-2-yl)phenyl)sulfamoyl)phenyl)acrylamide], the IC50 was determined as 2.91 µM. The same measure for `Cc1ccc(-c2cn3nc(-c4cc(C(F)(F)F)ccn4)ccc3n2)cc1NC(=O)C(C)(C)C` [Example 456, N-(2-methyl-5-(6-(4-(trifluoromethyl)pyridin-2-yl)imidazo[1,2-b]pyridazin-2-yl)phenyl)pivalamide]: 0.365 µM; for `COc1cc(CNc2ccc3nc(-c4ccc(C)c(NC(=O)C(C)(C)C)c4)cn3n2)cc(OC)c1OC` [compound 587]: 0.632 µM; for `Cc1ccc(-c2cn3nc(-c4ccc(N)nc4)ccc3n2)cc1NC(=O)C(C)(C)C` [Example 402, N-(5-(6-(6-aminopyridin-3-yl)imidazo[1,2-b]pyridazin-2-yl)-2-methylphenyl)pivalamide]: 1.56 µM. The same measure for `COc1cc(-c2ccc3nc(-c4ccc(C)c(NC(=O)C(C)(C)C)c4)cn3n2)ncc1C(=O)O` [Example 461, 4-methoxy-6-(2-(4-methyl-3-pivalamidophenyl)imidazo[1,2-b]pyridazin-6-yl)nicotinic acid]: 8.39 µM.

Regarding `COC(=O)CN(C(=O)C(C)(C)C)c1cc(-c2cn3nc(-c4cccnc4C(F)(F)F)ccc3n2)ccc1C` [compound 515, methyl 2-(N-(2-methyl-5-(6-(2-(trifluoromethyl)pyridin-3-yl)imidazo[1,2-b]pyridazin-2-yl)phenyl)pivalamido)acetate], the IC50 is 0.911 µM. The same measure for `Cc1ccc(-c2cn3nc(-c4ccc(NC(=O)CCCCCCC(=O)NO)cc4C(F)(F)F)ccc3n2)cc1NC(=O)C(C)(C)C` [compound 530]: 6.68 µM; for `CC(=O)Nc1ccc(-c2ccc3nc(-c4ccc(C)c(NC(=O)C(C)(C)C)c4)cn3n2)c(C)n1` [compound 504, N-(5-(6-(6-acetamido-2-methylpyridin-3-yl)imidazo[1,2-b]pyridazin-2-yl)-2-methylphenyl)pivalamide]: 0.36 µM. The same measure for `Cc1ccc(-c2cn3nc(-c4ccc(C(N)=NO)cc4)ccc3n2)cc1NC(=O)C(C)(C)C` [compound 546]: 1.13 µM. The same measure for `Cc1ccc(-c2cn3nc(-c4ccc(C(=O)NO)cc4)ccc3n2)cc1NC(=O)C(C)(C)C` [compound 588]: 1.05 µM. For the compound `CC(C)(C)C(=O)Nc1cc(-c2cn3nc(N4CCC[C@@H]4CO)ccc3n2)ccc1C(F)(F)F` [Example 469, (R)-N-(5-(6-(2-(hydroxymethyl)pyrrolidin-1-yl)imidazo[1,2-b]pyridazin-2-yl)-2-(trifluoromethyl)phenyl)pivalamide], the IC50 is 0.339 µM.

For `COc1ccc2nc(-c3ccc(C)c(NC(=O)c4cccc(C=CC(=O)NO)c4)c3)cn2n1` [compound 616], the IC50 was above 10 µM. The same measure for `COC(=O)c1csc(-c2cc(-c3cn4nc(-c5cccnc5C(F)(F)F)ccc4n3)ccc2C)n1` [compound 506]: 1.34 µM; for `Cc1ccc(-c2cn3nc(C=CC(=O)NO)ccc3n2)cc1NC(=O)C(C)(C)C` [compound 578]: 9.28 µM. The same measure for `Cc1ccc(-c2cn3nc(-c4ccc(OCCCCCC(=O)NO)cc4C(F)(F)F)ccc3n2)cc1NC(=O)C(C)(C)C` [Example 416, N-hydroxy-6-(4-(2-(4-methyl-3-pivalamidophenyl)imidazo[1,2-b]pyridazin-6-yl)-3-(trifluoromethyl)phenoxy)hexanamide]: 0.253 µM. The same measure for `CC(C)(C)C(=O)Nc1cc(-c2cn3nc(-c4cncc(N)c4)ccc3n2)ccc1C(F)(F)F` [Example 343, N-(5-(6-(5-aminopyridin-3-yl)imidazo[1,2-b]pyridazin-2-yl)-2-(trifluoromethyl)phenyl)pivalamide]: 0.34 µM; for `CNC(=O)c1ccc(-c2ccc3nc(-c4ccc(C)c(NC(=O)C(C)(C)C)c4)cn3n2)cc1` [compound 525]: 0.441 µM; for `Cc1ccc(-c2cn3nc(N4CCC(F)(F)C4)ccc3n2)cc1NC(=O)C(C)(C)C` [Example 277, N-(5-(6-(3,3-difluoropyrrolidin-1-yl)imidazo[1,2-b]pyridazin-2-yl)-2-methylphenyl)pivalamide]: 0.35 µM. As for `CCOC(=O)C=Cc1cccc(S(=O)(=O)Nc2cc(-c3cn4nc(C=CC(=O)OCC)ccc4n3)ccc2C)c1` [compound 608], the IC50 was 2.04 µM. The same measure for `Cc1ccc(-c2cn3nc(C4=CCCC4)ccc3n2)cc1NC(=O)C(C)(C)C` [Example 442, N-(5-(6-cyclopentenylimidazo[1,2-b]pyridazin-2-yl)-2-methylphenyl)pivalamide]: 1.06 µM.

With `Cc1ccc(-c2cn3nc(NC(=O)c4ncccc4Cl)ccc3n2)cc1NC(=O)C(C)(C)C` [compound 612], the IC50 worked out at 0.078 µM. The same measure for `Cc1ccc(-c2cn3nc(-c4cccc(O)c4C(F)(F)F)ccc3n2)cc1NC(=O)C(C)(C)C` [Example 398, N-(5-(6-(3-hydroxy-2-(trifluoromethyl)phenyl)imidazo[1,2-b]pyridazin-2-yl)-2-methylphenyl)pivalamide]: 0.681 µM; for `Cc1ccc(-c2cn3nc(-c4ccc(C(=O)N(C)C)cc4)ccc3n2)cc1NC(=O)C(C)(C)C` [compound 524]: 0.479 µM. The same measure for `CC(C)(C)C(=O)Nc1cc(-c2cn3nc(NC4CCCCC4O)ccc3n2)ccc1C(F)(F)F` (stereo not shown) [Example 333, N-(5-(6-(2-hydroxycyclohexylamino)imidazo[1,2-b]pyridazin-2-yl)-2-(trifluoromethyl)phenyl)pivalamide]: 0.893 µM; for `CCOC(=O)C=Cc1cccc(S(=O)(=O)Nc2ccc3nc(-c4ccc(C)c(NC(=O)C(C)(C)C)c4)cn3n2)c1` [compound 603]: 8.18 µM; for `COC(=O)CCCCCCN(C(=O)C(C)(C)C)c1cc(-c2cn3nc(-c4cccnc4C(F)(F)F)ccc3n2)ccc1C` [compound 516, methyl 7-(N-(2-methyl-5-(6-(2-(trifluoromethyl)pyridin-3-yl)imidazo[1,2-b]pyridazin-2-yl)phenyl)pivalamido)heptanoate]: 1.71 µM. The same measure for `Cc1ccc(-c2cn3nc(-c4ccc(Cl)nc4)ccc3n2)cc1NC(=O)C(C)(C)C` [Example 408, N-(5-(6-(6-chloropyridin-3-yl)imidazo[1,2-b]pyridazin-2-yl)-2-methylphenyl)pivalamide]: 0.34 µM. For the compound `Cc1ccc(-c2cn3nc(NCc4ccc(CO)cc4)ccc3n2)cc1NC(=O)C(C)(C)C` [compound 593], the IC50 came out at 2.04 µM.

As for `Cc1ccc(-c2cn3nc(NCc4ccc(C(=O)NO)cc4)ccc3n2)cc1NC(=O)C(C)(C)C` [compound 604], the concentration for half-maximal inhibition (IC50) is 0.157 µM.
